From PMC8617031, “Development of a BCL-xL and BCL-2 dual degrader with improved anti-leukemic activity,” (Nature Communications, 2021) come the findings set out here.

“And” between values parts separate entries of the source, which are not always exact repeats. Equal values may be shown once. Read-outs that look alike come from different tables or passages of the source.

The subject of the data set is Kasumi-1 cells. In words: Viability (MTS) of Kasumi-1 AML cells. Particulars: for IC50: 72 h. The class given is cell-based, human.
[1] abbreviates: 3.90625 nM (plate column 2), Fig. 7a.
The mark [2] stands for this setting: 7.8125 nM (plate column 3), Fig. 7a.
[3] abbreviates: 15.625 nM (plate column 4), Fig. 7a.
Where [4] appears, read: 31.25 nM (plate column 5), Fig. 7a.
[5] abbreviates: 62.5 nM (plate column 6), Fig. 7a.
The mark [6] stands for this setting: 125 nM (plate column 7), Fig. 7a.
[7] abbreviates: 250 nM (plate column 8), Fig. 7a.
The mark [8] stands for this setting: 500 nM (plate column 9), Fig. 7a.
[9] abbreviates: 1000 nM (plate column 10), Fig. 7a.
[10] abbreviates: 2000 nM = 2U (plate column 11), Fig. 7a.
[11] abbreviates: 4000 nM = 4U (plate column 12), Fig. 7a.

For orientation: IC50 means the concentration that gives 50% inhibition. With `CC1(C)CCC(CN2CCN(c3ccc(C(=O)NS(=O)(=O)c4ccc(NCC5CCOCC5)c([N+](=O)[O-])c4)c(Oc4cnc5[nH]ccc5c4)c3)CC2)=C(c2ccc(Cl)cc2)C1` [ABT199, venetoclax], the “Luminescence (raw plate reading)” value is 505600 and 468580 and 525678 and 543318 under setting [1]; 504424 and 455660 and 487360 and 542979 under setting [2]; 489014 and 455068 and 501527 and 480804 under setting [3]; 466073 and 441818 and 471956 and 491899 under setting [4]; 440585 and 409812 and 377802 and 367500 under setting [5]; 397154 and 357971 and 355935 and 386744 under setting [6]. The “Luminescence (raw plate reading)” value under setting [7] is 359551 and 316363 and 300748 and 321366; the “Luminescence (raw plate reading)” value under setting [8] is 315682 and 289875 and 281016 and 292587; the “Luminescence (raw plate reading)” value under setting [9] is 293868 and 256148 and 279970 and 273769; the “Luminescence (raw plate reading)” value under setting [10] was 258049 and 207791 and 210071 and 198590; the “Luminescence (raw plate reading)” value under setting [11] was 180705 and 155931 and 141587 and 133830. The “Luminescence normalised to mean of the 0 concentration wells (= 100), viability” value (“Luminescence normalised to mean” below) by setting is: (3.90625 (nM), Fig. 7a) 73.8707 and 68.4619 and 76.8042 and 79.3815; (7.8125 (nM), Fig. 7a) 73.6989 and 66.5743 and 71.2058 and 79.332; (15.625 (nM), Fig. 7a) 71.4474 and 66.4878 and 73.2757 and 70.2479; (31.25 (nM), Fig. 7a) 68.0956 and 64.5519 and 68.9552 and 71.869; (62.5 (nM), Fig. 7a) 64.3717 and 59.8756 and 55.1988 and 53.6936; (125 (nM), Fig. 7a) 58.0262 and 52.3014 and 52.0039 and 56.5053. The “Luminescence normalised to mean” value is, setting by setting: (250 (nM), Fig. 7a) 52.5322 and 46.2223 and 43.9408 and 46.9532; (500 (nM), Fig. 7a) 46.1228 and 42.3522 and 41.0579 and 42.7485; (1000 (nM), Fig. 7a) 42.9356 and 37.4245 and 40.905 and 39.9991; (2000 (nM, 2U), Fig. 7a) 37.7023 and 30.3593 and 30.6924 and 29.015; (4000 (nM, 4U), Fig. 7a) 26.4019 and 22.7823 and 20.6866 and 19.5532. Also, the IC50 by setting is: (Homo sapiens, Kasumi 1, Fig. 7a, read-out: IC50, viability of Kasumi-1 AML cells) 867 nM; (Homo sapiens, Kasumi 1, Fig. 7c, read-out: IC50, viability of Kasumi-1 cells) 1130 nM.
As to `Cc1c(-c2c(-c3ccc(F)o3)sc3ncnc(O[C@H](Cc4ccccc4OCc4ccnn4CC(F)(F)F)C(=O)O)c23)ccc(OCCN2CCN(C)CC2)c1Cl` [S63845], the “Luminescence (raw plate reading)” value by setting is: under setting [1], 585765 and 593361 and 588702 and 615617; under setting [2], 614886 and 587762 and 581843 and 642033; under setting [3], 585793 and 568144 and 557931 and 596587; under setting [4], 583012 and 572945 and 570605 and 624151; under setting [5], 545426 and 545383 and 550949 and 588219; under setting [6], 511944 and 516519 and 502413 and 546675. In addition, the “Luminescence (raw plate reading)” value reads like this: under setting [7], 434681 and 438403 and 429749 and 470053; under setting [8], 365024 and 363596 and 364210 and 384218; under setting [9], 263752 and 271433 and 266762 and 285013; under setting [10], 165813 and 178184 and 172580 and 186041; under setting [11], 112826 and 107734 and 101511 and 111059. The “Luminescence normalised to mean” value by setting is: (3.90625 (nM), Fig. 7a) 85.5833 and 86.6931 and 86.0124 and 89.9448; (7.8125 (nM), Fig. 7a) 89.838 and 85.875 and 85.0102 and 93.8043; (15.625 (nM), Fig. 7a) 85.5874 and 83.0087 and 81.5166 and 87.1644; (31.25 (nM), Fig. 7a) 85.181 and 83.7102 and 83.3683 and 91.1917; (62.5 (nM), Fig. 7a) 79.6895 and 79.6832 and 80.4965 and 85.9418; (125 (nM), Fig. 7a) 74.7976 and 75.4661 and 73.4051 and 79.872. The “Luminescence normalised to mean” value was 63.5091 and 64.0529 and 62.7885 and 68.6771 (250 (nM), Fig. 7a); 53.3319 and 53.1232 and 53.2129 and 56.1362 (500 (nM), Fig. 7a); 38.5355 and 39.6577 and 38.9753 and 41.6419 (1000 (nM), Fig. 7a); 24.2261 and 26.0336 and 25.2148 and 27.1815 (2000 (nM, 2U), Fig. 7a); 16.4845 and 15.7405 and 14.8313 and 16.2263 (4000 (nM, 4U), Fig. 7a). Moreover, under “Fig. 7a, read-out: IC50, viability of Kasumi-1 AML cells”, the IC50 was 527 nM.
